In the assay the target is T1, RecBCD enzyme (RecB subunit) (Escherichia coli, UniProt P08394).
T1 construct: RecBCD holoenzyme (330 kDa, three subunits); with RecC and RecD
Put plainly: RecBCD nuclease assay with [3H] phage T7 DNA, […] ATP; unaffected by Triton X-100. Format: biochemical.

From article PMC7641324, “Small-molecule sensitization of RecBCD helicase–nuclease to a Chi hotspot-activated state” (Nucleic Acids Research, 2020) come the findings set out here.

T1 sequence (P08394 2-1180): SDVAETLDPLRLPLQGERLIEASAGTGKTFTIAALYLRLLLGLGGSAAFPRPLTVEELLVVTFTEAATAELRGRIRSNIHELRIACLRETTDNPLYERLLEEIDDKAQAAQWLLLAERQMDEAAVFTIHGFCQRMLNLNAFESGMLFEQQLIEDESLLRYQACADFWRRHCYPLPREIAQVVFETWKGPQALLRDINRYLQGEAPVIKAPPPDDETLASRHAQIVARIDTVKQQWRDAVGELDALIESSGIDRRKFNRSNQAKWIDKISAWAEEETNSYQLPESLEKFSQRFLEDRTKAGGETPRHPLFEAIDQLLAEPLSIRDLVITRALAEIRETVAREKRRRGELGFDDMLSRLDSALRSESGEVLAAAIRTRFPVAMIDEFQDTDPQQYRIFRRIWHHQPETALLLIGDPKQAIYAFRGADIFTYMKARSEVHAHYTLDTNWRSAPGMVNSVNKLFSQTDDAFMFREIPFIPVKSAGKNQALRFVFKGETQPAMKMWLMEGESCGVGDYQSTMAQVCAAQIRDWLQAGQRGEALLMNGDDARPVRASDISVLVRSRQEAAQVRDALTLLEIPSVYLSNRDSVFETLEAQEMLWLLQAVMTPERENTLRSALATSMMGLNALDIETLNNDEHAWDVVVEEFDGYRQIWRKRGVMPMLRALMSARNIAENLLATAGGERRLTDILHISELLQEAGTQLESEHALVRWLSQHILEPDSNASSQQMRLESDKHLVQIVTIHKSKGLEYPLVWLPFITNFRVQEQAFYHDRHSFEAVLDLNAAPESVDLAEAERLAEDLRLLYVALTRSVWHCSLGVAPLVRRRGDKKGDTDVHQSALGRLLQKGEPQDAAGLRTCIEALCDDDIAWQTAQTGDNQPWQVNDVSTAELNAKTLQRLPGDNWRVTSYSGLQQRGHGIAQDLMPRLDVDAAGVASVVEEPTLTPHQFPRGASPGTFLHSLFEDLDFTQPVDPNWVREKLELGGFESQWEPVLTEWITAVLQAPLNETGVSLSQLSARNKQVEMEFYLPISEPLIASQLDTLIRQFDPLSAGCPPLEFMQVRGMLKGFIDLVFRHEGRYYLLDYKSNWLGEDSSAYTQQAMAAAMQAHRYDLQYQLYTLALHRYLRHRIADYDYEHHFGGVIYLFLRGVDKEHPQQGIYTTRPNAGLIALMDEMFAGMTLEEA
T1 sequence (P07648 whole entry, further chain): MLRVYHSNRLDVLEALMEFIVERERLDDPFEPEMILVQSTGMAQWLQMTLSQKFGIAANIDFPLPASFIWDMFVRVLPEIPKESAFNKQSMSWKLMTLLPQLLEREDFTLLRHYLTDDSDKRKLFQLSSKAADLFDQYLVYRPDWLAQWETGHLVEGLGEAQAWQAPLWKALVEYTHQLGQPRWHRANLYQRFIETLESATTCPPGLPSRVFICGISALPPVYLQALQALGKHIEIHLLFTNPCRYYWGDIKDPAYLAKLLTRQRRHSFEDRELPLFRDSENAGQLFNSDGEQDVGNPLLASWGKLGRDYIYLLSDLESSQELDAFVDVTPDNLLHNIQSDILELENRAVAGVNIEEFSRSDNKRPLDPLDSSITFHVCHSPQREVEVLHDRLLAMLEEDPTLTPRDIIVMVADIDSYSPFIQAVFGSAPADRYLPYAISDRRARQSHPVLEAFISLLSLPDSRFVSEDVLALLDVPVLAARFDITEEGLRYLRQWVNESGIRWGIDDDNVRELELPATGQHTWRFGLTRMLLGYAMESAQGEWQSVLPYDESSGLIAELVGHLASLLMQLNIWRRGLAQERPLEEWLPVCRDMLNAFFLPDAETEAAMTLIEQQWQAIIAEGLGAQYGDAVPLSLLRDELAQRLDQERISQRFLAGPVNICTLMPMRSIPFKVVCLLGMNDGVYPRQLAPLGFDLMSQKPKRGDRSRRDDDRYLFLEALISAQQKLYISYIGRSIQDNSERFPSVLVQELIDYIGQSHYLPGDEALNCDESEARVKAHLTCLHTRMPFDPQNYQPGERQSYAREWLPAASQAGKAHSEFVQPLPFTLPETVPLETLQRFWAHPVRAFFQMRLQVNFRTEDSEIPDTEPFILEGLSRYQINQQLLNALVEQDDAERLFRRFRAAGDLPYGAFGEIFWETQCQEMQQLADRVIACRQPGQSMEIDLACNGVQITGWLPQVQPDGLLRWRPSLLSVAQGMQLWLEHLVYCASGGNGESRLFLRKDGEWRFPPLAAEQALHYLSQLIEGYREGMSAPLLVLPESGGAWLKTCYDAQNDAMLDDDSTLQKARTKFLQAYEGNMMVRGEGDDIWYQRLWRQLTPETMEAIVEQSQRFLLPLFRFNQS
T1 sequence (P04993 whole entry, further chain): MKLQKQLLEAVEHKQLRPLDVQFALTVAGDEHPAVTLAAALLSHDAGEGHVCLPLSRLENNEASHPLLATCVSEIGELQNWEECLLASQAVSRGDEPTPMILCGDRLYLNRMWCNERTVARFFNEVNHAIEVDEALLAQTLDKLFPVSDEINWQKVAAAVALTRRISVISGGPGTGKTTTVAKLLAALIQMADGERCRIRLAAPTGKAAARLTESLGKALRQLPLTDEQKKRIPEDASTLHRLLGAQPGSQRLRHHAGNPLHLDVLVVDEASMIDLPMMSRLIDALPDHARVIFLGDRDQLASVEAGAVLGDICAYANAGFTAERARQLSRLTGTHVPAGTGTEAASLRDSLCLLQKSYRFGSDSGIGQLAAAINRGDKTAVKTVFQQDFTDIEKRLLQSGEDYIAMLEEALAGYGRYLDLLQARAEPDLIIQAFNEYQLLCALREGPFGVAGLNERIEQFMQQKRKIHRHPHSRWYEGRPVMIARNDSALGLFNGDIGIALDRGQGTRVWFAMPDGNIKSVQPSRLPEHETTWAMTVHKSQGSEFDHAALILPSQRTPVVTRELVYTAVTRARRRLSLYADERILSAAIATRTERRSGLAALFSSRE

`CCC(Sc1nnc2n(CCOc3ccccc3Cl)c3ccccc3n12)C(=O)O` (stereo not shown) [NSAC1003, 2-({7-[2-(2-chlorophenoxy)ethyl]-2,4,5,7-tetraazatricyclo[6.4.0.0^2,^6]dodeca-1(8),3,5,9,11-pentaen-3-yl}sulfanyl)butanoic acid] yielded an IC50 of 6.3 ± 0.3 µM.
